Source: patent US9924717B2, “Molecules having pesticidal utility, and intermediates, compositions, and processes, related thereto” (Dow AgroSciences LLC, priority 2016, dated 2018)
Read-outs that look alike come from different tables or passages of the source.

How the values were obtained:
Assay type in all cases: in vivo
[1] = tested on: Cabbage Looper (Trichoplusia ni, TRIPNI) (CL); assay: Bioassays on Cabbage Looper (CL), 128-well diet tray assay; details: for pest or weed control at 50 µg/cm2: Table ABC rating, Cabbage Looper; for mortality at 5 µg/cm2: 168 h, diet tray, second instar larvae, five to seven days, read-out: Percent control (or mortality) CL
Description: (§1) Example A: Bioassays on Beet Armyworm (Spodoptera exigua, LAPHEG) (“BAW”), Corn Earworm (Helicoverpa zea, Helize) (“CEW”), and Cabbage Looper (Trichoplusia ni, TRIPNI) (“CL”)
(§2) Certain molecules disclosed in this document were tested against BAW, CEW, and CL using procedures described in the following examples. In the reporting of the results, the “BAW, CEW, & CL Rating Table” was used (See Table Section).
Bioassays on CL were conducted using a 128-well diet tray assay. one to five second instar CL larvae were placed in each well (3 mL) of the diet tray that had been previously filled with 1 mL of artificial diet to which 50 μg/cm^2 of the test molecule (dissolved in 50 μL of 90:10 acetone-water mixture) had been applied (to each of eight wells) and then allowed to dry. Trays were covered with a clear self-adhesive cover and held at 25° C., 14:10 light-dark for five to seven days. Percent mortality was recorded for the larvae in each well; activity in the eight wells was then averaged. The results are indicated in the table entitled “Table ABC: Biological Results” (See Table Section).
(§3) Bioassays on BAW and CL were conducted according to the procedures outlined in Example A: Bioassays on Beet Armyworm (“BAW”) and Cabbage Looper (“CL”) using the indicated concentrations.

[2] = tested on: Beet Armyworm (Spodoptera exigua, LAPHEG) (BAW); assay: Bioassays on Beet Armyworm (BAW), 128-well diet tray assay; details: for pest or weed control at 50 µg/cm2: Table ABC rating, Beet Armyworm; for mortality at 5 µg/cm2: 168 h, diet tray, second instar larvae, five to seven days, read-out: Percent control (or mortality) BAW
Description: as §1, §2
Bioassays on BAW were conducted using a 128-well diet tray assay. one to five second instar BAW larvae were placed in each well (3 mL) of the diet tray that had been previously filled with 1 mL of artificial diet to which 50 μg/cm^2 of the test molecule (dissolved in 50 μL of 90:10 acetone-water mixture) had been applied (to each of eight wells) and then allowed to dry. Trays were covered with a clear self-adhesive cover and held at 25° C., 14:10 light-dark for five to seven days. Percent mortality was recorded for the larvae in each well; activity in the eight wells was then averaged. The results are indicated in the table entitled “Table ABC: Biological Results” (See Table Section).
as §3

[3] = tested on: Yellow Fever Mosquito (Aedes aegypti, AEDSAE) (YFM); assay: Bioassays on Yellow Fever Mosquito (YFM), 96-well plate larval assay; details: Table ABC rating
Description: Example C: Bioassays on Yellow Fever Mosquito (Aedes aegypti, AEDSAE) (“YFM”)
Certain molecules disclosed in this document were tested against YFM using procedures described in the following paragraph. In the reporting of the results, the “GPA & YFM Rating Table” was used (See Table Section).
Master plates containing 400 μg of a molecule dissolved in 100 μL of dimethyl sulfoxide (DMSO) (equivalent to a 4000 ppm solution) are used. A master plate of assembled molecules contains 15 μL per well. To this plate, 135 μL of a 90:10 water:acetone mixture is added to each well. A robot (Biomek® NXP Laboratory Automation Workstation) is programmed to dispense 15 μL aspirations from the master plate into an empty 96-well shallow plate (“daughter” plate). There are 6 reps (“daughter” plates) created per master. The created daughter plates are then immediately infested with YFM larvae.
The day before plates are to be treated, mosquito eggs are placed in Millipore water containing liver powder to begin hatching (4 g. into 400 mL). After the daughter plates are created using the robot, they are infested with 220 μL of the liver powder/larval mosquito mixture (about 1 day-old larvae). After plates are infested with mosquito larvae, a non-evaporative lid is used to cover the plate to reduce drying. Plates are held at room temperature for 3 days prior to grading. After 3 days, each well is observed and scored based on mortality. The results are indicated in the table entitled “Table ABC: Biological Results” (See Table Section).

[4] = 5 μg/cm^2 (first BAW/CL column pair)
[5] = 5 μg/cm^2 as printed (second BAW/CL column pair)

Row | SMILES | pest or weed control at 50 µg/cm2 [1] | pest or weed control at 50 µg/cm2 [2] | YFM [3] | mortality at 5 µg/cm2 [1, 4] | mortality at 5 µg/cm2 [1, 5] | mortality at 5 µg/cm2 [2, 4] | mortality at 5 µg/cm2 [2, 5]
1 | CC(NC(=O)c1ccc(/C(F)=C/C(c2ccc(Br)c(Br)c2)C(F)(F)F)cc1C(F)(F)F)C(F)(F)F (stereo not drawn) [F45, 4-((Z)-3-(3,4-Dibromophenyl)-1,4,4,4-tetrafluorobut-1-en-1-yl)-2-(trifluoromethyl)-N-(1,1,1-trifluoropropan-2-yl)benzamide] | 50 to 100% | 50 to 100% | B (More than 0-Less than 80) |  |  |  | 
2 | O=C(NC1CC1)c1ccc(/C(F)=C/C(c2cc(Cl)c(F)c(Cl)c2)C(F)(F)F)cc1C(F)(F)F (stereo not drawn) [F43, (Z)—N-Cyclopropyl-4-(3-(3,5-dichloro-4-fluorophenyl)-1,4,4,4-tetrafluorobut-1-en-1-yl)-2-(trifluoromethyl)benzamide] | 50 to 100% | 50 to 100% | A (80-100) |  |  |  | 
3 | O=C(NC1CCC(F)(F)CC1)c1ccc(/C(F)=C/C(c2cc(Cl)cc(Cl)c2)C(F)(F)F)cc1C(F)(F)F (stereo not drawn) [F25, (Z)-4-(3-(3,5-Dichlorophenyl)-1,4,4,4-tetrafluorobut-1-en-1-yl)-N-(4,4-difluorocyclohexyl)-2-(trifluoromethyl)benzamide] | 50 to 100% | 50 to 100% | A (80-100) |  |  |  | 
4 | F/C(=C\C(c1cc(Cl)c(Cl)c(Cl)c1)C(F)(F)F)c1ccc(C(=S)NCC(F)(F)F)c(C(F)(F)F)c1 (stereo not drawn) [F33, (Z)-4-(1,4,4,4-tetrafluoro-3-(3,4,5-trichlorophenyl)but-1-en-1-yl)-N-(2,2,2-trifluoroethyl)-2-(trifluoromethyl)benzothioamide] | 50 to 100% | 50 to 100% | B (More than 0-Less than 80) |  |  |  | 
5 | O=C(NC1CCC(F)(F)CC1)c1ccc(/C(F)=C/C(c2cc(Cl)c(F)c(Cl)c2)C(F)(F)F)cc1C(F)(F)F (stereo not drawn) [F41, (Z)-4-(3-(3,5-Dichloro-4-fluorophenyl)-1,4,4,4-tetrafluorobut-1-en-1-yl)-N-(4,4-difluorocyclohexyl)-2-(trifluoromethyl)benzamide] | 50 to 100% | 50 to 100% | A (80-100) |  |  |  | 
6 | O=C(NCC(F)(F)F)c1ccc(/C(F)=C/C(c2cc(Cl)c(Cl)c(Cl)c2)C(F)(F)F)c2ccccc12 (stereo not drawn) [PF1, (Z)-4-(1,4,4,4-Tetrafluoro-3-(3,4,5-trichlorophenyl)but-1-en-1-yl)-N-(2,2,2-trifluoroethyl)-1-naphthamide] | 50 to 100% | 50 to 100% | A (80-100) |  |  |  | 
7 | CC(NC(=O)c1ccc(/C(F)=C/C(c2cc(Cl)cc(Cl)c2)C(F)(F)F)cc1C(F)(F)F)C(F)(F)F (stereo not drawn) [F15, 4-((Z)-3-(3,5-Dichlorophenyl)-1,4,4,4-tetrafluorobut-1-en-1-yl)-2-(trifluoromethyl)-N-(1,1,1-trifluoropropan-2-yl)benzamide] | 50 to 100% | 50 to 100% | A (80-100) |  |  |  | 
8 | CC(NC(=O)c1ccc(/C(F)=C/C(c2cc(Cl)c(F)c(Cl)c2)C(F)(F)F)cc1C(F)(F)F)C(F)(F)F (stereo not drawn) [F27, (Z)-4-(3-(3,5-Dichloro-4-fluorophenyl)-1,4,4,4-tetrafluorobut-1-en-1-yl)-2-(trifluoromethyl)-N-(1,1,1-trifluoropropan-2-yl)benzamide] | 50 to 100% | 50 to 100% | A (80-100) |  |  |  | 
9 | CN(CC(F)(F)F)C(=S)c1ccc(/C(F)=C/C(c2cc(Cl)c(Cl)c(Cl)c2)C(F)(F)F)cc1C(F)(F)F (stereo not drawn) [F34, (Z)—N-Methyl-4-(1,4,4,4-tetrafluoro-3-(3,4,5-trichlorophenyl)but-1-en-1-yl)-N-(2,2,2-trifluoroethyl)-2-(trifluoromethyl)benzothioamide] | 50 to 100% | 50 to 100% | B (More than 0-Less than 80) |  |  |  | 
10 | O=C(NC1CCC(F)(F)CC1)c1ccc(/C(F)=C/C(c2ccc(Br)c(Br)c2)C(F)(F)F)cc1C(F)(F)F (stereo not drawn) [F44, (Z)-4-(3-(3,4-Dibromophenyl)-1,4,4,4-tetrafluorobut-1-en-1-yl)-N-(4,4-difluorocyclohexyl)-2-(trifluoromethyl)benzamide] | 50 to 100% | 50 to 100% | A (80-100) |  |  |  | 
11 | O=C(NC1CC1)c1ccc(/C(F)=C/C(c2ccc(Br)c(Br)c2)C(F)(F)F)cc1C(F)(F)F (stereo not drawn) [F46, (Z)—N-Cyclopropyl-4-(3-(3,4-dibromophenyl)-1,4,4,4-tetrafluorobut-1-en-1-yl)-2-(trifluoromethyl)benzamide] | 50 to 100% | 50 to 100% | A (80-100) |  |  |  | 
12 | C[C@@H](NC(=O)c1ccc(/C(F)=C/C(c2ccc(Cl)c(Cl)c2)C(F)(F)F)cc1C(F)(F)F)C(F)(F)F (stereo partly drawn) [F16, 4-((Z)-3-(3,4-Dichlorophenyl)-1,4,4,4-tetrafluorobut-1-en-1-yl)-2-(trifluoromethyl)-N—((R)-1,1,1-trifluoropropan-2-yl)benzamide] | 50 to 100% | 50 to 100% | A (80-100) |  |  |  | 
13 | O=C(NC1CC1)c1ccc(/C(F)=C/C(c2cc(Cl)cc(Cl)c2)C(F)(F)F)cc1C(F)(F)F (stereo not drawn) [F23, (Z)—N-Cyclopropyl-4-(3-(3,5-dichlorophenyl)-1,4,4,4-tetrafluorobut-1-en-1-yl)-2-(trifluoromethyl)benzamide] | 50 to 100% | 50 to 100% | A (80-100) |  |  |  | 
14 | O=C(NCc1ccccn1)c1ccc(/C(F)=C/C(c2cc(Cl)c(Cl)c(Cl)c2)C(F)(F)F)cc1C(F)(F)F (stereo not drawn) [F51, (Z)—N-(Pyridin-2-ylmethyl)-4-(1,4,4,4-tetrafluoro-3-(3,4,5-trichlorophenyl)but-1-en-1-yl)-2-(trifluoromethyl)benzamide] | 50 to 100% | 50 to 100% | A (80-100) |  |  |  | 
15 | O=C(NC1C[S+]([O-])C1)c1ccc(/C(F)=C/C(c2cc(Cl)c(Cl)c(Cl)c2)C(F)(F)F)cc1C(F)(F)F (stereo not drawn) [PF3] | 50 to 100% | 50 to 100% |  |  |  |  | 
16 | Cc1cc(/C(F)=C/C(c2cc(Cl)c(Cl)c(Cl)c2)C(F)(F)F)ccc1C(=O)NCC(F)(F)F (stereo not drawn) [F39, (Z)-2-Methyl-4-(1,4,4,4-tetrafluoro-3-(3,4,5-trichlorophenyl)but-1-en-1-yl)-N-(2,2,2-trifluoroethyl)benzamide] | 50 to 100% | 50 to 100% |  | 100% | 100% | 33% | 27%
17 | CN(C)/C=N/C(=O)c1ccc(/C(F)=C/C(c2cc(Cl)c(Cl)c(Cl)c2)C(F)(F)F)cc1C(F)(F)F (stereo not drawn) [F18, (E)-N-((dimethylamino)methylene)-4-((Z)-1,4,4,4-tetrafluoro-3-(3,4,5-trichlorophenyl)but-1-en-1-yl)-2-(trifluoromethyl)benzamide] | 50 to 100% | 50 to 100% |  |  |  |  | 
18 | O=C(NCc1ccnc(Cl)c1)c1ccc(/C(F)=C/C(c2cc(Cl)c(Cl)c(Cl)c2)C(F)(F)F)cc1C(F)(F)F (stereo not drawn) [F47, (Z)—N-((2-Chloropyridin-4-yl)methyl)-4-(1,4,4,4-tetrafluoro-3-(3,4,5-trichlorophenyl)but-1-en-1-yl)-2-(trifluoromethyl)benzamide] | 50 to 100% | 50 to 100% |  |  |  |  | 
